From US9617251B2, “Indanylaminopyridylcyclopropanecarboxylic acids, pharmaceutical compositions and uses thereof” (BOEHRINGER INGELHEIM INTERNATIONAL GMBH, priority 2015, dated 2017)
Converted amounts (≈) assume the structure as drawn.

Tests used:
[1] = molecular target: T1, cytochrome P450 2C9-isoenzyme (Homo sapiens, UniProt P11712); assay: Inhibition of CYP-2C9 (hydroxylation of diclofenac, human liver microsomes); format: in vitro ADME; conditions: CYP-2C9, human liver microsomes, diclofenac 10 μM, 37° C.
T1 construct: from tissue; host or cells: human liver microsomes
Experimental: The inhibition of cytochrome P450 2C9-isoenzyme catalyzed hydroxylation of diclofenac by the test compound is assayed at 37° C. with human liver microsomes. All assays are carried out on a robotic system in 96 well plates. The final incubation volume contains TRIS buffer (0.1 M), MgCl2 (5 mM), human liver microsomes (0.1 mg/mL), diclofenac (10 μM) and the test compound at five different concentrations or no compound (high control) in duplicate (e.g., highest concentration 10-50 μM with subsequent serial 1:4 dilutions). Following a short preincubation period, reactions are started with the cofactor (NADPH, 1 mM) and stopped by cooling the incubation down to 8° C. and subsequently by addition of one volume of acetonitrile. An internal standard solution—the stable isotope ^13C6-hydroxydiclofenac—is added after quenching of incubations. Peak area analyte (=metabolite formed) and internal standard is determined by LC-MS/MS. The resulting peak area ratio analyte to internal standard in these incubations is compared to a control activity containing no test compound. Within each of the assay runs, the IC50 of a positive control inhibitor (sulfaphenazole) is determined. Experimental IC50 values are calculated by least square regression according to the following equation: % control activity=(100% control activity/(1+(I/IC50)S))−B with I=inhibitor concentration; S=slope factor; B=background activity (lower plateau of the inhibition curve)
(§1) If the inhibition of the reaction is already >50% at the lowest concentration of the test compound, the IC50 is assigned “<lowest concentration tested” (usually <0.4 μM). If the inhibition of the reaction is still <50% at the highest concentration of the test compound, the IC50 is assigned “>highest concentration tested” (usually >50 μM).

[2] = molecular target: T2, cytochrome P450 2C8-isoenzyme (Homo sapiens, UniProt P10632); assay: Inhibition of CYP-2C8 (deethylation of amodiaquine, human liver microsomes); format: in vitro ADME; conditions: CYP-2C8, human liver microsomes, amodiaquine 1 μM, 37° C.
T2 construct: from tissue; host or cells: human liver microsomes
T2 sequence (P10632 1-490): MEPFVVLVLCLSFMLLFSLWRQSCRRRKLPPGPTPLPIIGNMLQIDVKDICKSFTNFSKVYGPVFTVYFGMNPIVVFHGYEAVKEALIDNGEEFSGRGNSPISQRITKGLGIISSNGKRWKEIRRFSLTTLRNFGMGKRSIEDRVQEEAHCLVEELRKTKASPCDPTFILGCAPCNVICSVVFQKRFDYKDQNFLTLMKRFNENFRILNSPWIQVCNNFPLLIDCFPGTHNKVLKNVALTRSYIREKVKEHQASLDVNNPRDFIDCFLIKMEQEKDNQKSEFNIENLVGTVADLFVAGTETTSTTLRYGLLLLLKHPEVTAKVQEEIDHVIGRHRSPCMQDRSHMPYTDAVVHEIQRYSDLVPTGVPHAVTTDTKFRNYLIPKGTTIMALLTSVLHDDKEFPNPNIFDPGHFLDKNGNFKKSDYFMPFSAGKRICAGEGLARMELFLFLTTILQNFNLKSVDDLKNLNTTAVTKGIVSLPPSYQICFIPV
Experimental: The inhibition of cytochrome P450 2C8-isoenzyme catalyzed deethylation of amodiaquine by the test compound is assayed at 37° C. with human liver microsomes. All assays are carried out on a robotic system in 96 well plates. The final incubation volume contains TRIS buffer (0.1 M), MgCl2 (5 mM), human liver microsomes (0.05 mg/mL), amodiaquine (1 μM) and the test compound at five different concentrations or no compound (high control) in duplicate (e.g. highest concentration 10-50 μM with subsequent serial 1:4 dilutions). Following a short preincubation period, reactions are started with the cofactor (NADPH, 1 mM) and stopped by cooling the incubation down to 8° C. and subsequently by addition of one volume of acetonitrile. An internal standard solution—the stable isotope d5-desethylamodiaquine—is added after quenching of incubations. Peak area analyte (=metabolite formed) and internal standard is determined by LC-MS/MS. The resulting peak area ratio analyte to internal standard in these incubations is compared to a control activity containing no test compound. Within each of the assay runs, the IC50 of a positive control inhibitor (Montelukast) is determined. Experimental IC50 values are calculated by least square regression according to the following equation: % control activity=(100% control activity/(1+(I/IC50)S))−B with I=inhibitor concentration; S=slope factor; B=background activity (lower plateau of the inhibition curve)
as §1

[3] = molecular target: human GPR40 receptor (Homo sapiens, UniProt O14842); assay: IP1 accumulation measurements using the IPOne assay system (1321N1 cells stably expressing human GPR40 receptor); format: cell-based; conditions: 1321N1 cells expressing human GPR40, 1 h stimulation at 37° C.
Experimental: IP1 accumulation measurements using the IPOne assay system—1321N1 cells stably expressing human GPR40 receptor (Euroscreen, Belgium) are seeded 24 h before the assay in white 384-well plates in culture medium containing 10% FCS, 1% Na-Pyruvate and 400 μg/mL G418. IP1 is assayed according to the manufacturer's description (Cisbio Bioassays, France). In brief, the assay is started by substitution of the culture medium by stimulation buffer (Hepes 10 mM, CaCl2 1 mM, MgCl2 0.5 mM, KCl 4.2 mM, NaCl 146 mM, glucose 5.5 mM and LiCl 50 mM, pH 7.4). Cells are stimulated for 1 h at 37° C., 5% CO2 by addition of the compounds that are diluted in stimulation buffer containing LiCl. Assays are stopped by adding HTRF-conjugates (IP1-d2 and Anti-IP1 cryptate Tb) and lysis buffer, provided by the manufacturer. After an incubation time of 1 h at room temperature plates are measured using an EnVision™, Perkin Elmer. The obtained fluorescence ratios at 665/615 […] are then used to calculate the pEC50 values using Assay Explorer 3.3 Software (Accelrys, Inc.) by interpolation using an IP1 reference curve and subsequent sigmoidal curve fitting allowing for a variable hill slope.

[4] = Aqueous solubility in buffer vs acetonitrile/water (1/1), LC-UV; format: physicochemical; conditions: kinetic from dmso stock, buffer pH 2.2, 24 h shaking, 2.5% DMSO
Experimental: The aqueous solubility of the compounds of the invention is determined by comparing the amount dissolved in buffer to the amount in an acetonitrile/water (1/1) solution. Starting from a 10 mM DMSO stock solution aliquots are diluted with acetonitrile/water (1/1) or buffer, respectively. After 24 h of shaking, the solutions are filtrated and analyzed by LC-UV. The amount dissolved in buffer is compared to the amount in the acetonitrile solution.
Solubility is usually being measured from 0.001 to 0.125 mg/mL at a DMSO concentration of 2.5%. If more than 90% of the compound is dissolved in buffer, the value is marked with “>”.

T1 sequence (P11712 whole entry): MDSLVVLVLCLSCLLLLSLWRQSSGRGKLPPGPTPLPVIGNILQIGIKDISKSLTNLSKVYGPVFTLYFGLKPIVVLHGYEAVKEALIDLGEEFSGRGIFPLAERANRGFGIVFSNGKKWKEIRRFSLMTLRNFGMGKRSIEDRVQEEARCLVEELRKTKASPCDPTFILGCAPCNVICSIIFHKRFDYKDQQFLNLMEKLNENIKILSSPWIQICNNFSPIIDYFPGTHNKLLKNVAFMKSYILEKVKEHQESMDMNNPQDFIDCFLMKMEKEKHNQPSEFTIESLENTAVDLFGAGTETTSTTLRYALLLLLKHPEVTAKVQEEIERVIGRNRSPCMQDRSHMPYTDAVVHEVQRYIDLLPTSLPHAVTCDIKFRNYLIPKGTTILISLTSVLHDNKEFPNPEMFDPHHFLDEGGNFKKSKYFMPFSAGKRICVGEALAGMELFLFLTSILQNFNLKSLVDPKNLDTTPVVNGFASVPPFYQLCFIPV
Chain of human GPR40 receptor (O14842 whole entry): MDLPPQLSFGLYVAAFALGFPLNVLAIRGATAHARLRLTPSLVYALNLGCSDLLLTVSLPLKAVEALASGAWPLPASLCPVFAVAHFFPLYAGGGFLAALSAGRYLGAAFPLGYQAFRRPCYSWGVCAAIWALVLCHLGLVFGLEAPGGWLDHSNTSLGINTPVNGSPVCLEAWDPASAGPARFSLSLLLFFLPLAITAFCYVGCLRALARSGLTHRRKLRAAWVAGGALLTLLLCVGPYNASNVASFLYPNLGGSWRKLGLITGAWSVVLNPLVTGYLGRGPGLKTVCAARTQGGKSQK

| Structure (SMILES) | IC50 [1] [µM] | IC50 [2] [µM] | EC50 [3] [µM] | solubility at 24 h [4] [µg/mL] |
| --- | --- | --- | --- | --- |
| Cc1cc(-c2nnn(C)n2)cc(C)c1-c1cccc2c1CC[C@H]2Nc1ccc(C2C[C@@H]2C(=O)O)cn1 (mixture of isomers) [Example 5, trans-2-(6-{(R)-4-[2,6-Dimethyl-4-(2-methyl-2H-tetrazol-5-yl)-phenyl]-indan-1-ylamino}-pyridin-3-yl)-cyclopropanecarboxylic acid] | 48 | 12 | 0.016 |  |
| Cc1cc(OCCC(C)(C)O)cc(C)c1-c1cccc2c1CC[C@H]2Nc1ccc(C2C[C@@H]2C(=O)O)cn1 (mixture of isomers) [Example 6, trans-2-(6-{(R)-4-[4-(3-Hydroxy-3-methyl-butoxy)-2,6-dimethyl-phenyl]-indan-1-ylamino}-pyridin-3-yl)-cyclopropanecarboxylic acid] | > 50 | > 50 | 0.019 |  |
| Cc1cc(-c2nnn(C)n2)cc(C)c1-c1ccc(F)c2c1CC[C@H]2Nc1ccc(C2C[C@@H]2C(=O)O)cn1 (mixture of isomers) [Example 7, trans-2-(6-{(R)-4-[2,6-Dimethyl-4-(2-methyl-2H-tetrazol-5-yl)-phenyl]-7-fluoro-indan-1-ylamino}-pyridin-3-yl)-cyclopropanecarboxylic acid] | > 50 | 38 | 0.019 |  |
| Cc1cc(OCCC(C)(C)O)cc(C)c1-c1ccc(F)c2c1CC[C@H]2Nc1ccc(C2C[C@@H]2C(=O)O)cn1 (mixture of isomers) [Example 8, trans-2-(6-{(R)-7-Fluoro-4-[4-(3-hydroxy-3-methyl-butoxy)-2,6-dimethyl-phenyl]-indan-1-ylamino}-pyridin-3-yl)-cyclopropanecarboxylic acid] | > 50 | > 50 | 0.016 |  |
| Cc1cc(-c2nnn(C)n2)cc(C)c1-c1ccc(F)c2c1CC[C@H]2Nc1ccc([C@H]2C[C@@H]2C(=O)O)cn1 [Example 3, (1S,2S)-2-(6-{(R)-4-[2,6-Dimethyl-4-(2-methyl-2H-tetrazol-5-yl)-phenyl]-7-fluoro-indan-1-ylamino}-pyridin-3-yl)-cyclopropanecarboxylic acid] | > 50 | 19 | 0.004 | 91 (≈ 183 µM) |
| Cc1cc(-c2nnn(C)n2)cc(C)c1-c1cccc2c1CC[C@H]2Nc1ccc([C@@H]2C[C@H]2C(=O)O)cn1 [Example 9, (1R,2R)-2-(6-{(R)-4-[2,6-Dimethyl-4-(2-methyl-2H-tetrazol-5-yl)-phenyl]-indan-1-ylamino}-pyridin-3-yl)-cyclopropanecarboxylic acid] |  |  | 0.259 |  |
| Cc1cc(OCCC(C)(C)O)cc(C)c1-c1cccc2c1CC[C@H]2Nc1ccc([C@@H]2C[C@H]2C(=O)O)cn1 [Example 10, (1R,2R)-2-(6-{(R)-4-[4-(3-Hydroxy-3-methyl-butoxy)-2,6-dimethyl-phenyl]-indan-1-ylamino}-pyridin-3-yl)-cyclopropanecarboxylic acid] |  |  | 0.497 |  |
| Cc1cc(OCCC(C)(C)O)cc(C)c1-c1ccc(F)c2c1CC[C@H]2Nc1ccc([C@@H]2C[C@H]2C(=O)O)cn1 [Example 12, (1R,2R)-2-(6-{(R)-7-Fluoro-4-[4-(3-hydroxy-3-methyl-butoxy)-2,6-dimethyl-phenyl]-indan-1-ylamino}-pyridin-3-yl)-cyclopropanecarboxylic acid] |  |  | 0.568 |  |
| Cc1cc(O[C@H]2CCOC2)cc(C)c1-c1ccc(F)c2c1CC[C@H]2Nc1ccc([C@H]2C[C@@H]2C(=O)O)cn1 [Example 13] | > 50 | 49 | 0.027 | 115 (≈ 229 µM) |
| Cc1cc(-c2nnn(CC(C)(C)O)n2)cc(C)c1-c1ccc(F)c2c1CC[C@H]2Nc1ccc([C@H]2C[C@@H]2C(=O)O)cn1 [Example 14] | > 50 | 45 | 0.004 | 83 (≈ 149 µM) |
| Cc1cc(OC2CCOCC2)cc(C)c1-c1ccc(F)c2c1CC[C@H]2Nc1ccc([C@H]2C[C@@H]2C(=O)O)cn1 [Example 15] | > 50 | 26 | 0.018 |  |
| Cc1cc(C(=O)O)cc(C)c1-c1ccc(F)c2c1CC[C@H]2Nc1ccc([C@H]2C[C@@H]2C(=O)O)cn1 [Example 40] | > 50 | > 50 | 0.94 |  |
| Cc1cc(OCC2(O)CCS(=O)(=O)CC2)cc(C)c1-c1ccc(F)c2c1CC[C@H]2Nc1ccc([C@H]2C[C@@H]2C(=O)O)cn1 [Example 64] | > 50 | > 50 | 0.029 |  |
| Cc1cc(OC2CCOCC2)cc(C)c1-c1cccc2c1CC[C@H]2Nc1ccc([C@H]2C[C@@H]2C(=O)O)cn1 [Example 77] |  |  | 0.02 |  |
| Cc1cc(OCC(C)(C)O)cc(C)c1-c1cccc2c1CC[C@H]2Nc1ccc([C@H]2C[C@@H]2C(=O)O)cn1 [Example 79] |  |  | 0.023 |  |
| Cc1cc(OCC(C)(C)C#N)cc(C)c1-c1cccc2c1CC[C@H]2Nc1ccc([C@H]2C[C@@H]2C(=O)O)cn1 [Example 80] |  |  | 0.022 |  |
| Cc1cc(-c2ccn(C)c(=O)c2)cc(C)c1-c1cccc2c1CC[C@H]2Nc1ccc([C@H]2C[C@@H]2C(=O)O)cn1 [Example 81] |  |  | 0.008 |  |
| Cc1cc(-c2ccc(=O)n(C)c2)cc(C)c1-c1cccc2c1CC[C@H]2Nc1ccc([C@H]2C[C@@H]2C(=O)O)cn1 [Example 82] |  |  | 0.018 |  |
| Cc1cc(-c2cc(=O)n(C)cn2)cc(C)c1-c1cccc2c1CC[C@H]2Nc1ccc([C@H]2C[C@@H]2C(=O)O)cn1 [Example 83] |  |  | 0.008 |  |
| COc1cc(F)c(-c2cccc3c2CC[C@H]3Nc2ccc([C@H]3C[C@@H]3C(=O)O)cn2)c(F)c1 [Example 84] |  |  | 0.212 |  |
| O=C(O)[C@H]1C[C@@H]1c1ccc(N[C@@H]2CCc3c(-c4ccccc4C(F)(F)F)cccc32)nc1 [Example 85] |  |  | 0.091 |  |
| Cc1cc(C(=O)N(C)C)cc(C)c1-c1cccc2c1CC[C@H]2Nc1ccc([C@H]2C[C@@H]2C(=O)O)cn1 [Example 86] |  |  | 0.174 |  |
